Columns and labels:
[1] = target: T1, porcine striatal pD1 dopamine receptor (Sus scrofa, UniProt P50130); experiment: Receptor binding assay, [3H]SCH 23390 competition, porcine striatal membranes; conditions: for Ki: means of 2-8 individual experiments each done as triplicate; for selectivity ratio pD1: vs p5-HT1a
T1 construct: membrane homogenates prepared from porcine striatal or cortical tissue; from tissue; host or cells: porcine striatum

[2] = target: T2, human dopamine receptor subtype hD4.4 (Homo sapiens, UniProt P21917); experiment: Receptor binding assay, [3H]spiperone competition, CHO cell membranes; conditions: for Ki: means of 2-8 individual experiments each done as triplicate; for selectivity ratio hD4.4: vs p5-HT1a
T2 construct: expressed in transfected cells; host or cells: CHO
T2 sequence (P21917 1-419): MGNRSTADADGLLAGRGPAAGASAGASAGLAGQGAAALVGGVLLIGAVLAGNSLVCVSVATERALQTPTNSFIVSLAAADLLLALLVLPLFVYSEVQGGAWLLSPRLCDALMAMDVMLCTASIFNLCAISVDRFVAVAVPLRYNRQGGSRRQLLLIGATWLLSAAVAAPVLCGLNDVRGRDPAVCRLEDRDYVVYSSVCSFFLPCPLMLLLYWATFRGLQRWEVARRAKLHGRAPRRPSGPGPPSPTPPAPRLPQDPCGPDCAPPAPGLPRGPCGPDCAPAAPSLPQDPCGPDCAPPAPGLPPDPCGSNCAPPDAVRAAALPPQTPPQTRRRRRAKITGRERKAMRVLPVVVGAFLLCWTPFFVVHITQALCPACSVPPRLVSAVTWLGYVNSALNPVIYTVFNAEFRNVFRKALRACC
Experimental: Receptor binding data were determined when performing competition binding assays with membrane preparations of cloned cells (stably transfected Chinese Hamster Ovary cells (CHO)) expressing the human receptors and the following radioligands: [^3H]spiperone at the human dopamine receptor subtypes hD2long, hD2short, D3, and hD4.4. […].
(§1) Selectivity ratios were calculated by division of the Ki values of the various compounds at the respective receptors through the Ki values at the 5HT1a receptor.

[3] = target: T3, human dopamine receptor subtype hD2long (Homo sapiens, UniProt P14416); experiment: as above; conditions: for Ki: means of 2-8 individual experiments each done as triplicate; for selectivity ratio hD2long: vs p5-HT1a
T3 construct: expressed in transfected cells; host or cells: CHO
Experimental: (§2) Receptor binding data were determined when performing competition binding assays with membrane preparations of cloned cells (stably transfected Chinese Hamster Ovary cells (CHO)) expressing the human receptors and the following radioligands: [^3H]spiperone at the human dopamine receptor subtypes hD2long, hD2short, D3, and hD4.4.
as §1

[4] = target: T4, human dopamine receptor subtype hD2short (Homo sapiens, UniProt P14416); experiment: as above; conditions: for Ki: means of 2-8 individual experiments each done as triplicate; for selectivity ratio hD2short: vs p5-HT1a
T4 construct: expressed in transfected cells; host or cells: CHO
Experimental: as §2, §1

[5] = target: T5, human dopamine receptor subtype hD3 (Homo sapiens, UniProt P35462); experiment: as above; conditions: for Ki: means of 2-8 individual experiments each done as triplicate; for selectivity ratio hD3: vs p5-HT1a
T5 construct: expressed in transfected cells; host or cells: CHO
Experimental: as §2, §1

[6] = target: T6, porcine cortical pα1 adrenergic receptor; experiment: Receptor binding assay, [3H]prazosin competition, porcine cortical membranes; conditions: means of 2-8 individual experiments each done as triplicate
T6 construct: Ki pα1; other: means of 2-8 individual experiments each done as triplicate

[7] = target: T7, porcine cortical p5-HT2 serotonin receptor (Sus scrofa, UniProt P50129); experiment: Receptor binding assay, [3H]ketanserin competition, porcine cortical membranes; conditions: for Ki: means of 2-8 individual experiments each done as triplicate; for selectivity ratio p5-HT2: vs p5-HT1a
T7 construct: membrane homogenates prepared from porcine striatal or cortical tissue; from tissue; host or cells: porcine cortex

[8] = target: T8, porcine cortical p5-HT1a serotonin receptor (Sus scrofa, UniProt A0A4X1UTF5); experiment: Receptor binding assay, [3H]WAY100635 competition, porcine cortical membranes; conditions: for Ki: means of 2-8 individual experiments each done as triplicate; for selectivity ratio p5-HT1a: reference receptor of the ratio (=1)
T8 construct: membrane homogenates prepared from porcine striatal or cortical tissue; from tissue; host or cells: porcine cortex
T8 sequence (A0A4X1UTF5 1-422): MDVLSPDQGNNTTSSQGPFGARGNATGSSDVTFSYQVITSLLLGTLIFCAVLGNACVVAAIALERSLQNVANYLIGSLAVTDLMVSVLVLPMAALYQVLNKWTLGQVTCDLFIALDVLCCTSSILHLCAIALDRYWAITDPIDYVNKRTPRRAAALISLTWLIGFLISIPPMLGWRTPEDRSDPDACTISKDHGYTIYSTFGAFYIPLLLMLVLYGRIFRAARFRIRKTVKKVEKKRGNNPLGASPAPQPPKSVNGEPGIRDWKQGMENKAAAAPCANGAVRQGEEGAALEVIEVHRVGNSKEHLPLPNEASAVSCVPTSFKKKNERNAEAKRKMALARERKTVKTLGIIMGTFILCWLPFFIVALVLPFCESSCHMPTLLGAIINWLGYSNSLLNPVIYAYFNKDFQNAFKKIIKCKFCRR

[9] = tested on: porcine cortical pα1 adrenergic receptor; experiment: Receptor binding assay, [3H]prazosin competition, porcine cortical membranes; conditions: vs p5-HT1a
human 5-HT1a receptor = target: T9, human 5-HT1a receptor (Homo sapiens, UniProt P08908); experiment: [35S]GTPγS functional assay; assay type: biochemical
T9 construct: expressed in transfected cells
T9 sequence (P08908 1-422): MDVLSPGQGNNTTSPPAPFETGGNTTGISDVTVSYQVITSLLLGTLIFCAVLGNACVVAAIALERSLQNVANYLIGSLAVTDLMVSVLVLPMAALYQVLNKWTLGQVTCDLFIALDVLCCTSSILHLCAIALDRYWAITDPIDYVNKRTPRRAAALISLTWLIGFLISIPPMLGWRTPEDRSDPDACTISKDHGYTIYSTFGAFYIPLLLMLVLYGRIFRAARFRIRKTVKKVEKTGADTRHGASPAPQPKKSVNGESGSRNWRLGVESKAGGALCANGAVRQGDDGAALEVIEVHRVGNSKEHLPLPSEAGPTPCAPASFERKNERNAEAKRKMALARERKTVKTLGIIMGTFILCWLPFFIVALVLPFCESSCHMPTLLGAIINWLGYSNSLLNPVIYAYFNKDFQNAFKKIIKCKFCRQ
Experimental: Specific binding of [^35S]GTPγS is stimulated by activation of the stably expressed human 5-HT1a receptor in a dose-dependent way by agonists for this GPCR and is determined by measuring the radioactive label of the membrane. Non-linear regression analysis of the resulting dose-response curves yields the EC50 value in [nM] representing the half maximal concentration which is necessary to activate the receptor completely.

T3 sequence (P14416 whole entry): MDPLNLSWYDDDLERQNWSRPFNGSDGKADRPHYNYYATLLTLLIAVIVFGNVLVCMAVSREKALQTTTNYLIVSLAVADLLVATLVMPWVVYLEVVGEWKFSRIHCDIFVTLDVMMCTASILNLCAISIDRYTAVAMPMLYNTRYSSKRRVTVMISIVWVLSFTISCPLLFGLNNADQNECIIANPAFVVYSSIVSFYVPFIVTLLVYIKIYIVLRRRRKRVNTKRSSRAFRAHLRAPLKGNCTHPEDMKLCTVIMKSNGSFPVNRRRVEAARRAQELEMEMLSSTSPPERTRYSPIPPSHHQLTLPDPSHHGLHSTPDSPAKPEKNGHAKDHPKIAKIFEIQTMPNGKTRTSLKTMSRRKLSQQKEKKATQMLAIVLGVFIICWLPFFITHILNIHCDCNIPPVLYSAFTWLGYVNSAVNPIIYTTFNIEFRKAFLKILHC
T4 sequence (P14416 1-414 isoform P14416-2): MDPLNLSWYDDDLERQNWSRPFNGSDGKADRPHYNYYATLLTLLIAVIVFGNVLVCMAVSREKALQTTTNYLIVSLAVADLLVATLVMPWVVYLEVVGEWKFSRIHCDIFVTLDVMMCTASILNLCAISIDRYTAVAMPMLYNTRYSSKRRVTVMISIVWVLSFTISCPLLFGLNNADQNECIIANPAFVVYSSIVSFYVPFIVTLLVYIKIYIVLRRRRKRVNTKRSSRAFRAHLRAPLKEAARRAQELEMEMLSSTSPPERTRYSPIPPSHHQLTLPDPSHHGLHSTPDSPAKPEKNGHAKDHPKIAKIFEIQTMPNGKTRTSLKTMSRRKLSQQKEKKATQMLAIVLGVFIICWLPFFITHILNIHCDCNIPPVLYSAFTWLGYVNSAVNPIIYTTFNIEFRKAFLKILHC
T5 sequence (P35462 whole entry): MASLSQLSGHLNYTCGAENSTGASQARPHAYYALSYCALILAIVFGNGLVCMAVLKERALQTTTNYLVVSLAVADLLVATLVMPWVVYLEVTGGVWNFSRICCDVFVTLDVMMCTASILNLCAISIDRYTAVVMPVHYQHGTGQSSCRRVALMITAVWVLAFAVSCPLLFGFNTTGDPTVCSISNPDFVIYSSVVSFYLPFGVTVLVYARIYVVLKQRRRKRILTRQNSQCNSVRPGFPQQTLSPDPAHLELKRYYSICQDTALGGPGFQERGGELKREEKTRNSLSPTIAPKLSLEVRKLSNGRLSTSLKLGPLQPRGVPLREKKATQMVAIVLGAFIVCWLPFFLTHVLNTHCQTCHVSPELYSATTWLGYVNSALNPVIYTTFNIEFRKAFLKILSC
T7 sequence (P50129 whole entry): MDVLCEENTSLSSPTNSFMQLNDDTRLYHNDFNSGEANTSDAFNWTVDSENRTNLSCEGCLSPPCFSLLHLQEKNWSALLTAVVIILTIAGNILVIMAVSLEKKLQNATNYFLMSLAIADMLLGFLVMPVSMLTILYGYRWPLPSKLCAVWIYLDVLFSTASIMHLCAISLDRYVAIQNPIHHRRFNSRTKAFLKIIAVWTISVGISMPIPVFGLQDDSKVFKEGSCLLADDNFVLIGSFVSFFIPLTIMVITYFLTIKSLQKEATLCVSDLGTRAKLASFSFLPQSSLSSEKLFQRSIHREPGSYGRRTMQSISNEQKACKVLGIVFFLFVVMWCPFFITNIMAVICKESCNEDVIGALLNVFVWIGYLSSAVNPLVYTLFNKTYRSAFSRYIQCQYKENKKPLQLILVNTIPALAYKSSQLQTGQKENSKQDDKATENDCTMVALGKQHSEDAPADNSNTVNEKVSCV
T1 sequence (P50130 whole entry): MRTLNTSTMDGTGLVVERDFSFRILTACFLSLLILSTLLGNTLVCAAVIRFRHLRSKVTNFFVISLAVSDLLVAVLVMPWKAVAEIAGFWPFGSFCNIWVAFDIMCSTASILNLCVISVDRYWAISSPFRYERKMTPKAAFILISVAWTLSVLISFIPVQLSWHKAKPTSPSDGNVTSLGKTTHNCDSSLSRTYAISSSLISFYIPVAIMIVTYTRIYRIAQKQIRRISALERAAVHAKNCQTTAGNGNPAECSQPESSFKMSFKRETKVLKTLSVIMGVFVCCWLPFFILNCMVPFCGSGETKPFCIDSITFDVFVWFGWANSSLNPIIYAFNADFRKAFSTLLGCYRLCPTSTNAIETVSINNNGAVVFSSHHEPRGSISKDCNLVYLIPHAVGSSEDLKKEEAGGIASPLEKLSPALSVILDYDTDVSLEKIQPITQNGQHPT

Compound | Ki [1] [nM] | Ki [2] [nM] | Ki [3] [nM] | Ki [4] [nM] | Ki [5] [nM] | Ki [6] [nM] | Ki [7] [nM] | Ki [8] [nM] | selectivity ratio pD1 [1] | selectivity ratio hD4.4 [2] | selectivity ratio hD2long [3] | selectivity ratio hD2short [4] | selectivity ratio hD3 [5] | selectivity ratio pα1 [9] | selectivity ratio p5-HT2 [7] | selectivity ratio p5-HT1a [8] | EC50 (human 5-HT1a receptor; mean values of 2-8 individual experiments) [nM] | Emax (human 5-HT1a receptor; read-out: intrinsic activity [% rel. to serotonin]) [%]
CCCN(CCc1cc(C)ccc1C)C1CCc2cccc(OC)c2C1 (stereo not shown) [Compound 8, N-(8-Methoxytetralin-2-yl)-N-propyl-N-[2-(2,5-dimethyl)phenylethyl]amine] | 6200 | 940 | 300 | 180 | 110 | 510 | 4400 | 24 |  |  |  |  |  |  |  |  |  | 
CCCN(CCc1cccs1)[C@H]1CCc2cccc(O)c2C1 [Compound 1b, (S)—N-(8-Hydroxytetralin-2-yl)-N-propyl-N-[2-(2-thienyl)ethyl]amine] | 5400 | 690 | 520 | 290 | 49 | 200 | 5500 | 1.8 | 3 000 | 380 | 290 | 160 | 26 | 110 | 3 100 | 1 |  | 
N-(2-Ferrocenylethyl)-N-(8-hydroxytetralin-2-yl)-N-propylamine [Compound 11] | 3100 | 7.4 | 34 | 16 | 52 | 170 | 930 | 0.32 |  |  |  |  |  |  |  |  |  | 
CCCN(CCc1cc2ccc1CCc1ccc(cc1)CC2)C1CCc2cccc(O)c2C1 (stereo not shown) [Compound 13, N-(8-Hydroxytetralin-2-yl)-N-[2-([2.2]paracyclophan-4-yl)ethyl]-N-propylamine] | 3500 | 87 | 990 | 640 | 170 | 930 | 2100 | 15 | 230 | 5.8 | 66 | 43 | 11 | 62 | 140 | 1 |  | 
CCCN(CCc1cccs1)[C@H]1CCc2cccc(OC)c2C1 [Compound 2b, (S)—N-(8-Methoxytetralin-2-yl)-N-propyl-N-[2-(2-thienyl)ethyl]amine] | 3300 | 760 | 85 | 58 | 32 | 140 | 3900 | 6.7 |  |  |  |  |  |  |  |  |  | 
CCCN(CCc1cccs1)C1CCc2cccc(OC)c2C1 (stereo not shown) [Compound 2, N-(8-Methoxytetralin-2-yl)-N-propyl-N-[2-(2-thienyl)ethyl]amine] | 6700 | 390 | 160 | 390 | 57 | 200 | 12000 | 2.9 |  |  |  |  |  |  |  |  | 6.3 | 91
CCCN(CCc1ccccc1)C1CCc2cccc(O)c2C1 (stereo not shown) [Compound 3, N-(8-Hydroxytetralin-2-yl)-N-(2-phenylethyl)-N-propylamine] | 9100 | 590 | 760 | 170 | 190 | 140 | 5800 | 0.62 | 15 000 | 950 | 1 200 | 270 | 310 | 230 | 9 400 | 1 |  | 
CCCN(CCc1cc2ccc1CCc1ccc(cc1)CC2)C1CCc2cccc(OC)c2C1 (stereo not shown) [Compound 14, N-(8-Methoxytetralin-2-yl)-N-propyl-N-[2-([2.2]paracyclophan-4-yl)ethyl]-amine] | 1900 | 110 | 48 | 35 | 33 | 280 | 7300 | 50 | 38 | 2.2 | 0.96 | 0.70 | 0.66 | 5.6 | 150 | 1 |  | 
N-(2-Adamantylethyl)-N-(8-methoxytetralin-2-yl)-N-propylamine [Compound 10] | 12000 | 1800 | 380 | 190 | 260 | 4900 | 14000 | 65 | 180 | 28 | 5.8 | 2.9 | 4.0 | 75 | 220 | 1 |  | 
CCCN(CCc1ccc(OC)cc1)C1CCc2cccc(OC)c2C1 (stereo not shown) [Compound 6, N-[2-(4-Methoxyphenyl)ethyl]-N-(8-methoxytetralin-2-yl)-N-propylamine] | 9500 | 470 | 340 | 260 | 110 | 230 | 4900 | 5.5 |  |  |  |  |  |  |  |  |  | 
CCCN(CCc1ccc(O)cc1)C1CCc2cccc(O)c2C1 (stereo not shown) [Compound 5, N-[2-(4-Hydroxyphenyl)ethyl]-N-(8-hydroxytetralin-2-yl)-N-propylamine] | 6200 | 570 | 340 | 86 | 95 | 87 | 6600 | 1.1 | 5 600 | 520 | 310 | 80 | 86 | 79 | 6 000 | 1 |  | 
N-(2-Ferrocenylethyl)-N-(8-methoxytetralin-2-yl)-N-propylamine [Compound 12] | 2600 | 3.5 | 38 | 17 | 11 | 92 | 2200 | 1.8 |  |  |  |  |  |  |  |  |  | 
CCCN(CCC)C1CCc2cccc(O)c2C1 (stereo not drawn) [R-(+)-8-OH-DPAT, reference compound] | 3300 | 210 |  |  |  | 250 | 2100 | 1.2 |  |  |  |  |  |  |  |  |  | 
